Assays:
[1] = test system: lymphoma cell lines WSU-DLCL2, SU-DHL6 and RL; assay: Macrophage mediated phagocytosis (ADCP) with rituximab; format: cell-based; details: macrophages treated with Compound 1 10 nM 48 hours, 3 hours
Description: Monocyte-derived macrophages (MDM) were generated by plating 8×10^6 commercial monocytes isolated from PBMC in RPMI media supplemented with 10% FBS, 1% L-glutamine and 60 ng/mL macrophage colony-stimulating factor (M-CSF) during 6 to 7 days. Then, MDM were treated with Compound 1 (10 nM) or DMSO control and cultured for an additional 48 hours prior to the assay. Lymphoma cell lines WSU-DLCL2, SU-DHL6 and RL were stained with CellTrace CFSE at 200 nM in PBS for 5 minutes at room temperature and added to the MDM cultures. At the time of co-culture, rituximab or isotype control were added to the media and cells were incubated at 37° C. during 3 hours. At the end of culture, cells were stained with anti-CD14 APC and images were acquired in Operetta. Phagocytosis index was calculated as cells positive for CFSE (green) and CD14 (red).

[2] = test system: RL follicular lymphoma xenograft tumors; assay: RL (follicular lymphoma) xenograft model, alone and in combination with rituximab; format: in vivo, female SCID mice; details: Compound 1 0.3 mg/kg oral, 5 days on 2 days off for 3 weeks, single agent
Description: (§1) Female 6- to 8-weeks-old CB17 SCID mice were obtained from Charles River Laboratories. Mice were housed in a barrier facility in micro-isolator cages at 10 animals per cage. Mice were fed with Harlan-Teklad LM-485 Mouse/Rat Sterilizable Diet and autoclaved water ad libitum and maintained on a 12 hours light-dark cycle. Animals were acclimatized to the animal housing facility for a period of 7 days before the beginning of the experiment. All animal studies were performed under protocols approved by Institutional Animal Care and Use Committees.
(§2) Suspensions of Compound 1 were pared in aqueous 0.5% Methyl Cellulose, 0.25% Tween 80 and 50 mM Citrate pH 3. […]
(§3) Tumor cells were injected subcutaneously in the flank region above the right hind legs of female CB17 SCID mice. […] Tumor volumes were determined before the initiation of treatment and were considered as the starting volumes. Tumors were measured twice a week for the duration of the study. The long and short axes of each tumor were measured using a digital caliper in millimeters. The tumor volumes were calculated using the formula: width^2×length/2. […]
(§4) Xenograft data are expressed as mean±SEM. […]
Xenograft study was conducted with female SCID mice bearing RL follicular lymphoma xenograft tumors. […] Tumors were measured twice a week using calipers and tumor volumes were calculated using the formula of W^2×L/2. […]

[3] = test system: SUDHL-6 DLBCL xenograft tumors; assay: SUDHL-6 (DLBCL) xenograft model; format: in vivo, female SCID mice; details: Compound 1 10 mg/kg oral, 5 days on 2 days off for 3 weeks, single agent
Description: as §1, §2, §3, §4
Xenograft study was conducted with female SCID mice bearing SUDHL-6 DLBCL xenograft tumors. […] Tumors were measured twice a week using calipers and tumor volumes were calculated using the formula of W^2×L/2. […]

Compound: O=C1CC[C@H](N2C(=O)c3cccc(NCc4ccc(CN5CC(N6CCOCC6)C5)cc4F)c3C2=O)C(=O)N1 [Compound 1, (S)-2-(2,6-dioxopiperidin-3-yl)-4-((2-fluoro-4-((3-morpholinoazetidin-1-yl)methyl)benzyl)amino)isoindoline-1,3-dione]
- phagocytosis of lymphoma cell lines mediated by macrophages (ADCP) [1]: enhances phagocytosis of lymphoma cell lines mediated by macrophages
- tumor volume reduction [2]: 36%
- tumor volume reduction [3]: 68%
